Laboratory results as given in ChEMBL document CHEMBL2380303, “Synthesis, cytotoxicity and topoisomerase II inhibitory activity of lomefloxacin derivatives” (Bioorg Med Chem Lett, 2013).
Calls of active or inactive are those of the source. The calls are words filed in the database; no cut-off is given here.

Key:
[1] = molecular target: T1, DNA topoisomerase 1 (Homo sapiens) (UniProt P11387); assay: Inhibition of human topoisomerase 1-mediated relaxation of supercoiled plasmid DNA assessed as formation of linear DNA at 100 uM by agarose gel electrophoresis
T1 sequence (whole entry): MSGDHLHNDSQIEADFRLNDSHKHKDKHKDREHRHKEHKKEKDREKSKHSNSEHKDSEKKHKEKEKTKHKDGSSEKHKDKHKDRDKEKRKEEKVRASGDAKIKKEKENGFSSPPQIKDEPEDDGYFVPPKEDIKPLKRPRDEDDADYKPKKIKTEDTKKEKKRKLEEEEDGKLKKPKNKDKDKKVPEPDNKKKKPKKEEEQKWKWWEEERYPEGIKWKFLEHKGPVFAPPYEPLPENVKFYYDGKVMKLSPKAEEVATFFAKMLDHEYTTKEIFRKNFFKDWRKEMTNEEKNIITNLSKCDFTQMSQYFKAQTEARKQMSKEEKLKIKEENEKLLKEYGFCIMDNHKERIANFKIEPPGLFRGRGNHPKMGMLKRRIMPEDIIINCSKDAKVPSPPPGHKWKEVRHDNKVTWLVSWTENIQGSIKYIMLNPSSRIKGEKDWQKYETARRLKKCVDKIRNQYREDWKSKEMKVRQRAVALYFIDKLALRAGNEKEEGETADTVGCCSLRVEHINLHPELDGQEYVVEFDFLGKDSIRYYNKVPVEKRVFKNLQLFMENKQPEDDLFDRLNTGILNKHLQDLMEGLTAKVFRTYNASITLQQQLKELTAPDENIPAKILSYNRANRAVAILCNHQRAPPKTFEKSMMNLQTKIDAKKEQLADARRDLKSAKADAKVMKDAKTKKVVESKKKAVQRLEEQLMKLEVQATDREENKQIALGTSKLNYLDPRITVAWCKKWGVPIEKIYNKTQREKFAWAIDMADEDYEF

KB = assay: Cytotoxicity against human KB cells by MTT assay; assay type: functional, cell-based
Bel-7402 = assay: Cytotoxicity against human Bel7402 cells by MTT assay; assay type: functional, cell-based
HCT-116 = assay: Cytotoxicity against human HCT116 cells by MTT assay; assay type: functional, cell-based
MDA-MB-231 = assay: Cytotoxicity against human MDA-MB-231 cells by MTT assay; assay type: functional, cell-based
A549 = assay: Cytotoxicity against human A549 cells by MTT assay; assay type: functional, cell-based
[2] = molecular target: DNA topoisomerase 2-alpha (Homo sapiens) (UniProt P11388); assay: Inhibition of human topoisomerase 2-mediated relaxation of supercoiled plasmid DNA assessed as formation of linear DNA at 100 uM by agarose gel electrophoresis
DNA topoisomerase 2-alpha (Homo sapiens), sequence (P11388 whole entry): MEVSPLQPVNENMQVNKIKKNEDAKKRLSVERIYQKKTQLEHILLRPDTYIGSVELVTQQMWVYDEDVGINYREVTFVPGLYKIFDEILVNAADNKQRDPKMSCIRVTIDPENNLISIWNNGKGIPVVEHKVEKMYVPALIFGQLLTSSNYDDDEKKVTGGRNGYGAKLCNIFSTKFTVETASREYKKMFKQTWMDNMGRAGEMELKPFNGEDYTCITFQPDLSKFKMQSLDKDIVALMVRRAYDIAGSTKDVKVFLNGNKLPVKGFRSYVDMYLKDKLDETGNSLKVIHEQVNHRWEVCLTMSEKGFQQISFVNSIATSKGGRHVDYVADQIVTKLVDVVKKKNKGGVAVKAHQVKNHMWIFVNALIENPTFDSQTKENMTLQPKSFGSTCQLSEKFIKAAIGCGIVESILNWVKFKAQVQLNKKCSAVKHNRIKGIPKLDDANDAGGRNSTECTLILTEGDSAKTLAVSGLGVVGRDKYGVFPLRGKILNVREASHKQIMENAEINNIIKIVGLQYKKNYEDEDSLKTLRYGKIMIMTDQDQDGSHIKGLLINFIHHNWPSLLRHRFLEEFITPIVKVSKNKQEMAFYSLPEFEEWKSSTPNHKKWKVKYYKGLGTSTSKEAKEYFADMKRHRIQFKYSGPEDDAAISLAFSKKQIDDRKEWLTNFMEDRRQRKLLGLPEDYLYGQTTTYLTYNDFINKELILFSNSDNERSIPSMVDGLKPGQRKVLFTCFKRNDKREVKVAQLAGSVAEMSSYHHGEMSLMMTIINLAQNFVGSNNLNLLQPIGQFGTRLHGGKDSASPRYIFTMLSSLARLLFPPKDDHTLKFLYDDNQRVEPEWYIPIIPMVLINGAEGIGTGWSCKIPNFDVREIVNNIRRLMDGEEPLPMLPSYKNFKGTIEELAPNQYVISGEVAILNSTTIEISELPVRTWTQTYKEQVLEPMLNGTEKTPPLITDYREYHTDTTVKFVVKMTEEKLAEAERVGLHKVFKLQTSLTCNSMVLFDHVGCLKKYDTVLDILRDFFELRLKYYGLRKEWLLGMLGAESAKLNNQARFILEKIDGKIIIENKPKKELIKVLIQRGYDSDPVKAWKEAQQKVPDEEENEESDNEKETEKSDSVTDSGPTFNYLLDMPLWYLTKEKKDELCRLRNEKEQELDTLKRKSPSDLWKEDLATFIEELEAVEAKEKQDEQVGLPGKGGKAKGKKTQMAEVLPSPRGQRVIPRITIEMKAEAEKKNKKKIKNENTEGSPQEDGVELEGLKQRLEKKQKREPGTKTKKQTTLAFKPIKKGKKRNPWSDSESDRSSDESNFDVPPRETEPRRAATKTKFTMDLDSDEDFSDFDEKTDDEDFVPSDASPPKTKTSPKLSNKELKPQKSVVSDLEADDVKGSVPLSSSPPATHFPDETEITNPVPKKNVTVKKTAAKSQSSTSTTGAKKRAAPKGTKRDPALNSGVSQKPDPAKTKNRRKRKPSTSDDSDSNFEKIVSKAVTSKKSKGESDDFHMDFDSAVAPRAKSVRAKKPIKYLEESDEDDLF

inhibition [1]	inhibition [2]	SMILES	IC50 (KB) [µM]	IC50 (Bel-7402) [µM]	IC50 (HCT-116) [µM]	IC50 (MDA-MB-231) [µM]	IC50 (A549) [µM]
inactive		CCn1cc(C(=O)Nc2ccc(OC)cc2)c(=O)c2cc(F)c(N3CCNC(C)C3)c(F)c21 (stereo not drawn)	2.6	5.4	3.8	7.3	9.7
inactive		CCn1cc(C(=O)Nc2ccccc2N)c(=O)c2cc(F)c(N3CCNC(C)C3)c(F)c21 (stereo not drawn)	2.8	4.8	2.7	9.5	5.9
inactive	Active	CCn1cc(C(=O)Nc2ccc(C(C)=O)cc2)c(=O)c2cc(F)c(N3CCNC(C)C3)c(F)c21 (stereo not drawn)	42.6	> 50	4.6	5.6	4
inactive		CCn1cc(C(=O)Nc2ccccc2O)c(=O)c2cc(F)c(N3CCNC(C)C3)c(F)c21 (stereo not drawn)	5.05	> 50	5.37	7.43	24.8
inactive	Active	CCn1cc(C(=O)Nc2cccc([N+](=O)[O-])c2)c(=O)c2cc(F)c(N3CCNC(C)C3)c(F)c21 (stereo not drawn)	1.7	1	2.71	3.25	3.24
inactive		CCn1cc(C(=O)Nc2ccccc2)c(=O)c2cc(F)c(N3CCNC(C)C3)c(F)c21 (stereo not drawn)	4.4	6	12.7	7.4	39.3

The remaining lines, values behind:

SMILES	inhibition [1]	inhibition [2]	IC50 (KB) [µM]	IC50 (Bel-7402) [µM]	IC50 (HCT-116) [µM]	IC50 (MDA-MB-231) [µM]	IC50 (A549) [µM]
CCn1cc(C(=O)Nc2cc([N+](=O)[O-])ccc2F)c(=O)c2cc(F)c(N3CCNC(C)C3)c(F)c21 (stereo not drawn)	inactive	Active	3.2	2.9	2.6	6.9	1.7
CCn1cc(C(=O)NCc2ccc(OC)cc2)c(=O)c2cc(F)c(N3CCNC(C)C3)c(F)c21 (stereo not drawn)	inactive		1.63	10.3	1.4	25.3	7
CCn1cc(C(=O)Nc2nccs2)c(=O)c2cc(F)c(N3CCNC(C)C3)c(F)c21 (stereo not drawn)	inactive		43.5	> 50	8.66	> 50	20.2
CCn1cc(C(=O)Nc2ccc(OC(F)(F)F)cc2)c(=O)c2cc(F)c(N3CCNC(C)C3)c(F)c21 (stereo not drawn)	inactive	Active	1.4	2	2.35	0.98	1.32
CCn1cc(C(=O)Nc2ccc(Cl)cn2)c(=O)c2cc(F)c(N3CCNC(C)C3)c(F)c21 (stereo not drawn)	inactive	Active	1.6	4.9	3.3	4.8	3.3
COc1cc([C@@H]2c3cc4c(cc3[C@@H](O[C@@H]3O[C@@H]5CO[C@@H](C)O[C@H]5[C@H](O)[C@H]3O)[C@H]3COC(=O)[C@H]23)OCO4)cc(OC)c1O		Active					
CCn1cc(C(=O)Nc2ccc(C)c([N+](=O)[O-])c2)c(=O)c2cc(F)c(N3CCNC(C)C3)c(F)c21 (stereo not drawn)	inactive	Active	3.9	29.1	11.8	4.2	3.7
CC[C@@]1(O)C(=O)OCc2c1cc1n(c2=O)Cc2cc3cc(O)ccc3nc2-1 [HYDROXYCAMPTOTHECIN]					0.3	0.06	0.07
CCn1cc(-c2nc3ccc([N+](=O)[O-])cc3o2)c(=O)c2cc(F)c(N3CCNC(C)C3)c(F)c21 (stereo not drawn)	inactive		0.9	1.6	1.1	2	0.9
